Patent publication US20240174618A1, “SUBSTITUTED (2-HETEROARYLOXYPHENYL)SULFONATES, SALTS THEREOF AND THEIR USE AS HERBICIDAL AGENTS” (Bayer Aktiengesellschaft, priority 2021, published 2024)

Assays:
Assay type in all cases: in vivo
Stellaria media (STEME) [1] = experiment: B. Herbicidal post-emergence efficacy, STEME
Experimental: (§1) Seeds of mono- and dicotyledonous weed plants were placed in plastic pots in sandy loam soil (doubly sown with in each case one species of mono- or dicotyledonous weed plants per pot), covered with soil and cultivated in a greenhouse under controlled growth conditions. 2 to 3 weeks after sowing, the test plants were treated at the one-leaf stage. The compounds of the invention, formulated in the form of wettable powders (WP) or as emulsion concentrates (EC), were applied onto the green parts of the plants as aqueous suspension or emulsion with addition of 0.5% additive at a water application rate of 600 liters per hectare (converted). After the test plants had been kept in the greenhouse under optimum growth conditions for about 3 weeks, the activity of the preparations was rated visually in comparison to untreated controls.
(§2) For example, • 100% efficacy=plants have died, • 0% efficacy=like untreated control plants
(§3) Tables B1a to B12c below show the effects of selected inventive compounds of the general formula (I) according to table 1 on various harmful plants at an application rate corresponding to 1280 g/ha or less, which were obtained by the experimental procedure mentioned above.

Kochia scoparia (KCHSC) [2] = experiment: B. Herbicidal post-emergence efficacy, KCHSC; details: for Post-emergence efficacy against KCHSC in %: rated visually after about 3 weeks; for Post-emergence efficacy against KCHSC: 1280 g/ha
Experimental: as §1, §2, §3

[3] = system: Amaranthus retroflexus (AMARE); experiment: B. Herbicidal post-emergence efficacy, AMARE
Experimental: as §1, §2, §3

[4] = system: Echinochloa crus-galli (ECHCG); experiment: A. Herbicidal pre-emergence efficacy, ECHCG; details: 1280 g/ha; scored visually after about 3 weeks vs untreated controls
Excerpt: (§4) Seeds of mono- and dicotyledonous weed plants were placed in plastic pots in sandy loam soil (doubly sown with one species each of mono- or dicotyledonous weed plants per pot) and covered with soil. The compounds of the invention, formulated in the form of wettable powders (WP) or as emulsion concentrates (EC), were then applied onto the surface of the covering soil as aqueous suspension or emulsion with addition of 0.5% additive at a water application rate of 600 liters per hectare (converted). After the treatment, the pots were placed in a greenhouse and kept under good growth conditions for the test plants. After about 3 weeks, the efficacy of the preparations was scored visually in comparison with untreated controls as percentages.
(§5) For example, • 100% efficacy=plants have died, • 0% efficacy=like untreated control plants.
(§6) Tables A1a to A12c below show the effects of selected compounds of the general formula (I) according to table 1 on various harmful plants at an application rate corresponding to 1280 g/ha or less, which were obtained by the experimental procedure mentioned above.

Veronica persica (VERPE) [5] = experiment: B. Herbicidal post-emergence efficacy, VERPE
Experimental: as §1, §2, §3

[6] = system: Abutilon theophrasti (ABUTH); experiment: B. Herbicidal post-emergence efficacy, ABUTH; details: rated visually after about 3 weeks
Experimental: as §1, §2, §3

Setaria viridis (SETVI) = experiment: A. Herbicidal pre-emergence efficacy, SETVI
Excerpt: as §4, §5, §6

Poa annua (POAAN) [7] = experiment: A. Herbicidal pre-emergence efficacy, POAAN
Excerpt: as §4, §5, §6

Stellaria media (STEME) [8] = experiment: A. Herbicidal pre-emergence efficacy, STEME
Excerpt: as §4, §5, §6

[9] = system: Echinochloa crus-galli (ECHCG); experiment: B. Herbicidal post-emergence efficacy, ECHCG; details: rated visually after about 3 weeks
Experimental: as §1, §2, §3

[10] = system: Amaranthus retroflexus (AMARE); experiment: A. Herbicidal pre-emergence efficacy, AMARE
Excerpt: as §4, §5, §6

[11] = system: Digitaria sanguinalis (DIGSA); experiment: A. Herbicidal pre-emergence efficacy, DIGSA; details: scored visually after about 3 weeks vs untreated controls
Excerpt: as §4, §5, §6

Veronica persica (VERPE) [12] = experiment: A. Herbicidal pre-emergence efficacy, VERPE; details: 1280 g/ha
Excerpt: as §4, §5, §6

Poa annua (POAAN) [13] = experiment: B. Herbicidal post-emergence efficacy, POAAN; details: 1280 g/ha
Experimental: as §1, §2, §3

Kochia scoparia (KCHSC) [14] = experiment: A. Herbicidal pre-emergence efficacy, KCHSC
Excerpt: as §4, §5, §6

[15] = system: Abutilon theophrasti (ABUTH); experiment: A. Herbicidal pre-emergence efficacy, ABUTH; details: 1280 g/ha; scored visually after about 3 weeks vs untreated controls
Excerpt: as §4, §5, §6

[16] = pre-emergence, dosage 1280 g/ha

| SMILES | Post-emergence efficacy against STEME (Stellaria media (STEME) [1]; 1280 g/ha) | Post-emergence efficacy against KCHSC in % (Kochia scoparia (KCHSC) [2]; 320 g/ha) | Post-emergence efficacy against KCHSC (Kochia scoparia (KCHSC) [2]) | Post-emergence efficacy against AMARE ([3]; 80 g/ha) | Post-emergence efficacy against AMARE ([3]; 320 g/ha) | Post-emergence efficacy against AMARE ([3]; 1280 g/ha) | Pre-emergence efficacy against ECHCG [4] | Post-emergence efficacy against VERPE (Veronica persica (VERPE) [5]; 1280 g/ha) | Post-emergence efficacy against ABUTH in % ([6]; 1280 g/ha) | Pre-emergence efficacy against SETVI (Setaria viridis (SETVI); dosage 1280 g/ha) | Pre-emergence efficacy against POAAN (Poa annua (POAAN) [7]; dosage 1280 g/ha) | Pre-emergence efficacy against STEME (Stellaria media (STEME) [8]; dosage 1280 g/ha) | Post-emergence efficacy against KCHSC in % (Kochia scoparia (KCHSC) [2]; 80 g/ha) | Pre-emergence efficacy against AMARE in % ([10]; 320 g/ha) | Pre-emergence efficacy against AMARE in % ([10]; 1280 g/ha) | Pre-emergence efficacy against DIGSA ([11]; 320 g/ha) | Pre-emergence efficacy against DIGSA ([11]; 1280 g/ha) | Post-emergence efficacy against VERPE (Veronica persica (VERPE) [5]; 80 g/ha) | Post-emergence efficacy against VERPE (Veronica persica (VERPE) [5]; 320 g/ha) | Pre-emergence efficacy against KCHSC (Kochia scoparia (KCHSC) [14]; [16]) | further results |
| --- | --- | --- | --- | --- | --- | --- | --- | --- | --- | --- | --- | --- | --- | --- | --- | --- | --- | --- | --- | --- | --- |
| O=[N+]([O-])c1cnc(Oc2ccccc2OS(=O)(=O)CCCCl)c(F)c1 [Example I-61] | 90% | 90% | 90% | 90% | 90% | 90% | 100% | 90% |  |  |  |  |  |  |  |  |  |  |  |  |  |
| O=S(=O)(CCCCl)Oc1ccccc1Oc1ncc(Cl)cc1F [Example I-64] | 90% | 90% | 90% | 90% | 90% | 90% | 100% | 90% | 90% | 100% | 100% | 90% | 90% | 90% | 100% | 90% | 100% | 90% | 90% | 90% | Post-emergence efficacy against ABUTH in % ([6]; 320 g/ha): 90%; Post-emergence efficacy against ECHCG in % ([9]; 1280 g/ha): 90%; Pre-emergence efficacy against VERPE in % (Veronica persica (VERPE) [12]): 100%; Post-emergence efficacy against POAAN (Poa annua (POAAN) [13]): 90% |
| O=S(=O)(CC1CC1(Cl)Cl)Oc1c(Br)cccc1Oc1ncc(Cl)cn1 (stereo not shown) [Example I-77] | 90% | 90% | 100% | 100% | 100% | 100% |  | 100% | 100% | 100% | 100% | 90% | 90% | 100% | 100% | 90% | 100% | 100% | 100% |  | Post-emergence efficacy against ABUTH in % ([6]; 80 g/ha): 90%; Post-emergence efficacy against ABUTH in % ([6]; 320 g/ha): 90%; Pre-emergence efficacy against SETVI (Setaria viridis (SETVI); dosage 320 g/ha): 90%; Pre-emergence efficacy against POAAN (Poa annua (POAAN) [7]; dosage 320 g/ha): 100%; Post-emergence efficacy against ECHCG in % ([9]; 320 g/ha): 90%; Post-emergence efficacy against ECHCG in % ([9]; 1280 g/ha): 100% |
| O=S(=O)(CCCCl)Oc1ccccc1Oc1ccc(Cl)cn1 [Example I-27] | 90% |  | 90% |  | 90% | 100% | 90% | 90% |  | 100% | 90% | 90% |  | 90% | 90% | 90% | 100% |  | 90% | 100% | Pre-emergence efficacy against SETVI (Setaria viridis (SETVI); dosage 320 g/ha): 100%; Pre-emergence efficacy against ABUTH [15]: 90%; Pre-emergence efficacy against POAAN (Poa annua (POAAN) [7]; dosage 320 g/ha): 90%; Pre-emergence efficacy against VERPE in % (Veronica persica (VERPE) [12]): 90% |
| O=S(=O)(Oc1ccccc1Oc1ncc(Cl)cn1)C1CC1 [Example I-21] | 100% | 100% | 100% | 90% | 100% | 100% | 100% | 100% |  | 100% | 100% | 100% | 90% | 100% | 100% | 100% | 100% | 90% | 100% | 100% | Post-emergence efficacy against STEME (Stellaria media (STEME) [1]; 320 g/ha): 90%; Pre-emergence efficacy against ABUTH [15]: 100%; Pre-emergence efficacy against POAAN (Poa annua (POAAN) [7]; dosage 320 g/ha): 100%; Pre-emergence efficacy against STEME (Stellaria media (STEME) [8]; dosage 320 g/ha): 100%; Pre-emergence efficacy against AMARE in % ([10]; 80 g/ha): 100%; Pre-emergence efficacy against VERPE in % (Veronica persica (VERPE) [12]): 90%; Post-emergence efficacy against POAAN (Poa annua (POAAN) [13]): 100%; Pre-emergence efficacy against KCHSC (Kochia scoparia (KCHSC) [14]; 80 g/ha, scored visually after about 3 weeks vs untreated controls): 90%; Pre-emergence efficacy against KCHSC (Kochia scoparia (KCHSC) [14]; pre-emergence, dosage 320 g/ha): 100% |
| CCCCS(=O)(=O)Oc1c(OC)cccc1Oc1ncc(Cl)cn1 [Example I-17] |  |  |  |  |  |  |  |  |  |  |  | 90% |  |  |  |  |  |  |  |  |  |
| O=S(=O)(CCCCl)Oc1ccccc1Oc1ncc(Br)cc1F [Example I-65] | 90% |  |  |  | 90% | 90% |  | 90% | 90% |  | 90% |  |  |  | 100% |  | 90% |  |  |  |  |
| O=S(=O)(CCCCl)Oc1ccccc1Oc1ccc(C(F)(F)F)cn1 [Example I-63] |  |  |  |  |  | 90% |  | 90% |  |  |  |  |  |  |  |  |  |  |  |  |  |
| O=S(=O)(CC(F)(F)F)Oc1ccccc1Oc1ncc(Cl)cn1 [Example I-4] | 90% |  | 90% |  |  | 90% |  | 100% | 90% |  |  |  |  |  | 100% |  |  |  | 90% | 100% | Post-emergence efficacy against POAAN (Poa annua (POAAN) [13]): 90% |
| N#Cc1ccc(Oc2ccccc2OS(=O)(=O)CCCCl)nc1 [Example I-58] |  |  | 90% | 90% | 90% | 90% |  | 90% | 90% |  |  |  |  |  |  |  | 90% |  |  | 90% | Pre-emergence efficacy against ABUTH [15]: 90% |
| O=S(=O)(CC=C(Cl)Cl)Oc1c(Br)cccc1Oc1ncc(Cl)cn1 [Example I-84] | 100% | 90% | 100% | 90% | 100% | 100% |  | 100% | 90% | 100% |  |  |  | 90% | 100% |  |  | 100% | 100% | 90% |  |
| O=[N+]([O-])c1ccc(Oc2ccccc2OS(=O)(=O)CCCCl)nc1 [Example I-62] |  |  |  |  |  | 90% |  | 90% |  |  |  |  |  |  |  |  |  |  |  |  |  |
| O=S(=O)(CCCC(F)(F)C(F)(F)F)Oc1c(Br)cccc1Oc1ncc(Cl)cn1 [Example I-67] | 100% | 100% | 100% | 100% | 100% | 100% |  | 100% | 100% | 100% |  |  | 90% | 100% | 100% |  | 90% | 90% | 100% | 100% | Post-emergence efficacy against STEME (Stellaria media (STEME) [1]; 320 g/ha): 100%; Post-emergence efficacy against ABUTH in % ([6]; 80 g/ha): 90%; Post-emergence efficacy against ABUTH in % ([6]; 320 g/ha): 90%; Pre-emergence efficacy against VERPE in % (Veronica persica (VERPE) [12]): 100%; Post-emergence efficacy against POAAN (Poa annua (POAAN) [13]): 100% |
